Test results: article PMC3191288 (Matrix biology : journal of the International Society for …, 2011)

How the values were obtained:
proMMP-2 activation = conditions: ref Strongin et al., 1995; cited from earlier work
[1] = tested on: proMMP-2 activation in HT1080 fibrosarcoma cells; assay: Cell surface activation of proMMP-2 in Con A stimulated HT1080 cell culture; assay type: cell-based, human; conditions: Con A 20 μg/ml, 0 nM C-TIMP-2
[2] = target: recombinant full-length TIMP-2 (human (plasmid pGWIGH/htimp-2)) (UniProt P16035); assay: ELISA
[3] = target: recombinant human MMP-2^E404A (human) (UniProt P08253); assay: ELISA
[4] = tested on: proMMP-2 activation by HT1080 cell membranes; assay: Activation of purified proMMP-2 by isolated HT1080 cell membranes; assay type: biochemical, human; conditions: peptide 3.7–100 μM, 16 h at 22 °C, pH 7.4; repeated at least 3 times
[5] = tested on: collagen binding domain of MMP-2 (CBD); assay: Surface plasmon resonance, CBD over immobilized peptide; parameters: species or system human; conditions: CBD 10 μM over immobilized peptide, SPR
[6] = target: T1, PEX (hemopexin domain of MMP-2) (Homo sapiens, UniProt P08253); assay: Surface plasmon resonance, PEX over immobilized peptide; assay type: binding; conditions: PEX 0.3–10 μM over immobilized peptide, SPR
T1 sequence (P08253 446-660): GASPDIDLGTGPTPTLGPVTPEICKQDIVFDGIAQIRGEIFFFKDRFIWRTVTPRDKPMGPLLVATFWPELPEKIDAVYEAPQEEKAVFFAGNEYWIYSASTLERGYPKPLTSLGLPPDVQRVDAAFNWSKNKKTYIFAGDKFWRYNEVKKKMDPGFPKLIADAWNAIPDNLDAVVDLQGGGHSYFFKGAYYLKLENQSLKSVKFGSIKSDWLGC

[7] = target: recombinant full-length TIMP-2 (human (plasmid pGWIGH/htimp-2), UniProt P16035 27-220); assay: ELISA
recombinant full-length TIMP-2, sequence (P16035 27-220): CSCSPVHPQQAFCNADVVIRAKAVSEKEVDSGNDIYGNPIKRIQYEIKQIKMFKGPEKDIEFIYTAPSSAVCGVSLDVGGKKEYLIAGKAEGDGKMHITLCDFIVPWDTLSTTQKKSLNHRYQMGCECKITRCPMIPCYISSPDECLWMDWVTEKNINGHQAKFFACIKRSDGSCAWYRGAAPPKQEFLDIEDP

recombinant full-length TIMP-2 (human (plasmid pGWIGH/htimp-2)), sequence (P16035 27-220): as above

tissue inhibitor of matrix metalloproteinase 2 [TIMP-2]
concentration at which full-length TIMP-2 inhibited activation of proMMP-2 (proMMP-2 activation): greater than 285 nM

concanavalin A [Con A]
activated MMP-2 band intensity [1]: 34,199 RDU | non-activated MMP-2 band intensity [1]: 3,439 RDU | proMMP-2 activated by Con A [1]: > 90%

recombinant human MMP-2^E404A (from UniProt P08253 30-660) (enzyme)
EC50 [2]: 50 nM

recombinant carboxyl-terminal domain of TIMP-2 (C-TIMP-2) (from UniProt P16035 154-220) (domain or fragment)
IC50 [3]: 5000 nM | Kd [3]: 390 nM

CAWYRGAAPPK [P175S]
inhibition of proMMP-2 activation by peptide [4]: did not have any inhibitory effect on the cell membrane- mediated activation of proMMP-2 | binding of CBD to peptide [5]: did not bind | binding of PEX to peptide [6]: consistently very weak

B1: hemopexin-like domain of MMP-2 (PEX) (domain or fragment, human, UniProt P08253 446-660, looked up)
chain: GASPDIDLGTGPTPTLGPVTPEICKQDIVFDGIAQIRGEIFFFKDRFIWRTVTPRDKPMGPLLVATFWPELPEKIDAVYEAPQEEKAVFFAGNEYWIYSASTLERGYPKPLTSLGLPPDVQRVDAAFNWSKNKKTYIFAGDKFWRYNEVKKKMDPGFPKLIADAWNAIPDNLDAVVDLQGGGHSYFFKGAYYLKLENQSLKSVKFGSIKSDWLGC
modifications: biotinylated (sites not given) in the assays on coated TIMP-2; unlabeled when coated and in SPR
EC50 [7]: 150 nM
